These results are taken from ChEMBL document CHEMBL1201862, “PubChem BioAssay data set” (2004).

Assay [1] in a line: microbe, parasite or virus in culture. It is filed as functional. As to conditions: Mycobacterium tuberculosis.
In assay [2] the target is Heat shock protein HSP 90-alpha (Homo sapiens, UniProt P07900). It counts as functional, organism-based.
A short description of assay [3]: A Cell Based Secondary Assay to Explore Cytotoxicity in THP-1 Cells of Compounds that Modulate Mycobacterium tuberculosis in Media Containing Glycerol versus Media without Glycerol (2). It is filed as functional.
Assay [4] in a line: Vero cell cytotoxicity, cytotoxicity control for M. tuberculosis inhibitor project, purified and synthesized samples, set 3 (AID 504684). It is filed as functional. The note with it: […].
Assay [5] in a line: A Cell Based Secondary Assay to Explore Cytotoxicity in HepG2 Cells of Compounds that Modulate Mycobacterium tuberculosis in Media Containing Glycerol versus Media without Glycerol (2). It is filed as functional.
Assay [6] concerns the target T1, High affinity choline transporter 1 (Homo sapiens, UniProt Q9GZV3).
T1 sequence (Q9GZV3 whole entry): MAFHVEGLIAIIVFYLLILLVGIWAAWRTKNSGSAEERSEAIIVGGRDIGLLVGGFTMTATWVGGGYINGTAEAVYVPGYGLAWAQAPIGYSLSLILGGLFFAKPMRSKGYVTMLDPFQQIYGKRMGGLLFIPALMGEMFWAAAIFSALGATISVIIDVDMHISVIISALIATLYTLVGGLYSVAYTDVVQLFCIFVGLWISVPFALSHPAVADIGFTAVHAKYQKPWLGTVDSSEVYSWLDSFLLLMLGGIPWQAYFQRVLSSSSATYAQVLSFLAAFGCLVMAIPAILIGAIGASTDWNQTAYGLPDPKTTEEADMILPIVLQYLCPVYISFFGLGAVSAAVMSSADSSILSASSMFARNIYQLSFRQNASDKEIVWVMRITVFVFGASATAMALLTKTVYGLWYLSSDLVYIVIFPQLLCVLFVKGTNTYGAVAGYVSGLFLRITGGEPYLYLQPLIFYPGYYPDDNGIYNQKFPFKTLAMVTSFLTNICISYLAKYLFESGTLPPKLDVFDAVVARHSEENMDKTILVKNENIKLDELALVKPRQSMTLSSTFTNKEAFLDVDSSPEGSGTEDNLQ
In words: CHT inhibitors, dose response, cell-based, 5-point CRC, membrane potential dye (AID 504840). It counts as functional.

Assay [7] addresses T1, High affinity choline transporter 1. Kind of assay: CHT inhibitors, dose response, cell-based, 10-point CRC, membrane potential dye (AID 588401).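 Further: membrane potential dye fluorescence of choline-evoked depolarization via CHT.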 It counts as functional.
For assay [8], the target named is Dual specificity protein kinase CLK2 (Homo sapiens, UniProt P49760). It is filed as functional.
Assay [9] has as its target ALK tyrosine kinase receptor (Homo sapiens, UniProt Q9UM73). It counts as functional.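 Further: ALK tested as one member of a kinase panel screen.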
The target of assay [10] is Serine/threonine-protein kinase D3 (Homo sapiens, UniProt O94806). It is filed as functional.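 Further: determined within a kinase panel screen, with PRKCN as the panel member.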
For assay [11], the target named is Tyrosine-protein kinase Lck (Homo sapiens, UniProt P06239). It is filed as functional.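 Further: lck was assayed as one member of a kinase panel.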
Assay [12] concerns the target Death-associated protein kinase 3 (Homo sapiens, UniProt O43293). It counts as functional.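 Further: measured as one member of a kinome-wide profiling panel.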
For another assay, the target named is Activin receptor type-1 (Homo sapiens, UniProt Q04771). In words: Navigating the Kinome. Panel member name: ACVR1. It is filed as functional.
Assay [13] addresses Mitogen-activated protein kinase 8 (Homo sapiens, UniProt P45983). It counts as functional.
Assay [14] has as its target Serine/threonine-protein kinase pim-1 (Homo sapiens, UniProt P11309). It counts as functional.
For the next assay, the target named is Aurora kinase A (Homo sapiens, UniProt O14965). It is filed as functional.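 Further: value from the Navigating the Kinome kinase panel profiling, panel entry STK6.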
Assay [15] deals with Tyrosine-protein kinase BTK (Homo sapiens, UniProt Q06187). It counts as functional.
Assay [16] concerns the target Serine/threonine-protein kinase PAK 4 (Homo sapiens, UniProt O96013). It counts as functional.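 Further: value obtained within a kinome profiling panel in which PAK4 was one of the panel members.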
Assay [17] addresses Fibroblast growth factor receptor 1 (Homo sapiens, UniProt P11362). It counts as functional.
Assay [18] concerns the target Casein kinase I isoform alpha (Homo sapiens, UniProt P48729). It is filed as functional.
Assay [19] deals with Tyrosine-protein kinase JAK3 (Homo sapiens, UniProt P52333). It is filed as functional.
In assay [20] the target is Mitogen-activated protein kinase 9 (Homo sapiens, UniProt P45984). It counts as functional.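 Further: value from a kinome panel profiling assay, MAPK9 panel entry.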
The target of a further assay is LIM domain kinase 1 (Homo sapiens, UniProt P53667). Kind of assay: Navigating the Kinome. Panel member name: LIMK1. It counts as functional.
Assay [21] deals with Serine/threonine-protein kinase TAO1 (Homo sapiens, UniProt Q7L7X3). It is filed as functional.
In assay [22] the target is Glycogen synthase kinase-3 alpha (Homo sapiens, UniProt P49840). It counts as functional.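 Further: GSK3A result taken from a broad kinome-wide kinase panel.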
Another assay has as its target Activated CDC42 kinase 1 (Homo sapiens, UniProt Q07912). Kind of assay: Navigating the Kinome. Panel member name: ACK1. It is filed as functional.
In assay [23] the target is Serine/threonine-protein kinase Chk1 (Homo sapiens, UniProt O14757). It counts as functional.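 Further: measured as one member of a kinome-wide kinase profiling panel.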
Assay [24] deals with G protein-coupled receptor kinase 5 (Homo sapiens, UniProt P34947). Kind of assay: Navigating the Kinome. Panel member name: GPRK5. It is filed as functional.
Assay [25] has as its target Cyclin-dependent kinase 5 (Homo sapiens, UniProt Q00535). It is filed as functional.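 Further: CDK5 measured as one member of a kinase profiling panel.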
For a further assay, the target named is Focal adhesion kinase 1 (Homo sapiens, UniProt Q05397). It counts as functional.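 Further: measured as one member of a kinome panel.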
The next assay has as its target Aurora kinase B (Homo sapiens, UniProt Q96GD4). It counts as functional.
Assay [26] addresses Tyrosine-protein kinase Fyn (Homo sapiens, UniProt P06241). It is filed as functional.
Assay [27] has as its target Serine/threonine-protein kinase Nek2 (Homo sapiens, UniProt P51955). It is filed as functional.
Assay [28] concerns the target Cyclin-dependent kinase 8 (Homo sapiens, UniProt P49336). Kind of assay: Navigating the Kinome. Panel member name: CDK8. It counts as functional.
Assay [29] deals with Cyclin-dependent kinase 7 (Homo sapiens, UniProt P50613). It counts as functional.
Assay [30] addresses Vascular endothelial growth factor receptor 1 (Homo sapiens, UniProt P17948). It counts as functional.
The target of assay [31] is BDNF/NT-3 growth factors receptor (Homo sapiens, UniProt Q16620). It counts as functional.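 Further: NTRK2 measured as one member of a broad kinome-wide kinase profiling panel.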
The target of assay [32] is Dual specificity protein kinase CLK4 (Homo sapiens, UniProt Q9HAZ1). It counts as functional.
Assay [33] concerns the target Mitogen-activated protein kinase kinase kinase kinase 4 (Homo sapiens, UniProt O95819). It counts as functional.
Assay [34] concerns the target Macrophage-stimulating protein receptor (Homo sapiens, UniProt Q04912). In words: Navigating the Kinome. Panel member name: MST1R. It is filed as functional.
For assay [35], the target named is Dual specificity mitogen-activated protein kinase kinase 2 (Homo sapiens, UniProt P36507). In words: Navigating the Kinome. Panel member name: MAP2K2. It is filed as functional.
Assay [36] addresses Dual specificity tyrosine-phosphorylation-regulated kinase 1A (Homo sapiens, UniProt Q13627). It is filed as functional.
Assay [37] addresses Calcium/calmodulin-dependent protein kinase type II subunit alpha (Homo sapiens, UniProt Q9UQM7). In words: Navigating the Kinome. Panel member name: CAMK2A. It counts as functional.
In assay [38] the target is Mitogen-activated protein kinase 14 (Homo sapiens, UniProt Q16539). It is filed as functional.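 Further: part of a kinome-wide panel, MAPK14 entry.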
For assay [39], the target named is T2, Melanin-concentrating hormone receptor 1 (Homo sapiens, UniProt Q99705). In words: Late-stage fluorescence-based counterscreen for antagonists of the G-protein coupled receptor 7 (GPR7): cell-based dose response assay to identify antagonists of the melanin-concentrating hormone receptor 1 (MCHR1) Set 5. It is filed as functional.
Assay [40] has as its target Calcium/calmodulin-dependent protein kinase type II subunit gamma (Homo sapiens, UniProt Q13555). It is filed as functional.
For assay [41], the target named is Calcium/calmodulin-dependent protein kinase type II subunit delta (Homo sapiens, UniProt Q13557). It counts as functional.
For assay [42], the target named is Calcium/calmodulin-dependent protein kinase type II subunit beta (Homo sapiens, UniProt Q13554). It is filed as functional.
Assay [43] deals with Tyrosine-protein kinase FRK (Homo sapiens, UniProt P42685). It is filed as functional.
For assay [44], the target named is Cell division cycle 7-related protein kinase (Homo sapiens, UniProt O00311). It is filed as functional.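 Further: value obtained from a kinome-wide kinase panel.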
Assay [45] deals with Homeodomain-interacting protein kinase 2 (Homo sapiens, UniProt Q9H2X6). It is filed as functional.
The target of assay [46] is MAP kinase-interacting serine/threonine-protein kinase 2 (Homo sapiens, UniProt Q9HBH9). It is filed as functional.
The target in assay [47] is Interleukin-1 receptor-associated kinase 4 (Homo sapiens, UniProt Q9NWZ3). It counts as functional.
The target of assay [48] is Glycogen synthase kinase-3 beta (Homo sapiens, UniProt P49841). It counts as functional.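 Further: value comes from a broad kinome profiling panel, with GSK3B as the panel member.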
The target in assay [49] is cAMP-dependent protein kinase catalytic subunit alpha (Homo sapiens, UniProt P17612). It counts as functional.
Assay [50] concerns the target T2, Melanin-concentrating hormone receptor 1. In words: Late-stage fluorescence-based counterscreen for antagonists of the G-protein coupled receptor 7 (GPR7): cell-based dose response assay to identify antagonists of the melanin-concentrating hormone receptor 1 (MCHR1) Set 6. It is filed as functional. In general terms: Counterscreens check selectivity or assay interference.

For assay [51], the target named is Neuropeptides B/W receptor type 1 (Homo sapiens, UniProt P48145). In words: GPR7 antagonist potency, late-stage follow-up, cell-based, fluorescence, dose response, set 6 (AID 588583). It is filed as functional.

Calls of active or inactive are those of the source. Where only a bound is given, the exact number is not on record here.

Serine/threonine-protein kinase pim-1, sequence (P11309 whole entry): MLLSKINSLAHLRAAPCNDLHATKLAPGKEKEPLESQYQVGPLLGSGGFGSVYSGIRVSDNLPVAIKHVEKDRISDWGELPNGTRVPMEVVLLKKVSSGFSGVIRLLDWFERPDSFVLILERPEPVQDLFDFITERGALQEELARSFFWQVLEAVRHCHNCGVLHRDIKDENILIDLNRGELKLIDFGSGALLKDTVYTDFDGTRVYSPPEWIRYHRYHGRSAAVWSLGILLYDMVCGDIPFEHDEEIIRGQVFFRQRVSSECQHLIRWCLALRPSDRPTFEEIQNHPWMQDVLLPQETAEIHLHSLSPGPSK
Dual specificity protein kinase CLK4, sequence (Q9HAZ1 whole entry): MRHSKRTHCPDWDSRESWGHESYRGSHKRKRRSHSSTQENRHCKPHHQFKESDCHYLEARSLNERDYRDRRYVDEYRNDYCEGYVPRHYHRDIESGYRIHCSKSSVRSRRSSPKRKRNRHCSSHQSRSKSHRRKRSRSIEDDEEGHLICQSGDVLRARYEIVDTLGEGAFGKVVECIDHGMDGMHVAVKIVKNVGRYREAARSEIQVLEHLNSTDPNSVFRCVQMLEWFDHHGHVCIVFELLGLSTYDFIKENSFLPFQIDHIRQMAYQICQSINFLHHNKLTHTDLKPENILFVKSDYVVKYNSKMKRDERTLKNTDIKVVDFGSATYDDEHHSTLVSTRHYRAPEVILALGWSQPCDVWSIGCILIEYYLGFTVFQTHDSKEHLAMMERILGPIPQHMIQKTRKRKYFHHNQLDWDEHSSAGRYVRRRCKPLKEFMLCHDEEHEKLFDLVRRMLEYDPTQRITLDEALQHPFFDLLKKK
T2 sequence (Q99705 whole entry): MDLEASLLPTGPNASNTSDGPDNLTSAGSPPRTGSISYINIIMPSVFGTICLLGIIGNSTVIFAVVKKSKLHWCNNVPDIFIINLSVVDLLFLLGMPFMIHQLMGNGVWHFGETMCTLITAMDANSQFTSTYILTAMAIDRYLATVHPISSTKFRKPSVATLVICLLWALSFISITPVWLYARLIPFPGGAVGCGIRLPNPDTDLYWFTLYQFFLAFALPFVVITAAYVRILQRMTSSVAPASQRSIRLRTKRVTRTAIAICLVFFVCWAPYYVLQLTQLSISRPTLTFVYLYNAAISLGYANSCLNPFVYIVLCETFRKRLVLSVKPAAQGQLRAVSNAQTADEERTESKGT
Mitogen-activated protein kinase kinase kinase kinase 4, sequence (O95819 whole entry): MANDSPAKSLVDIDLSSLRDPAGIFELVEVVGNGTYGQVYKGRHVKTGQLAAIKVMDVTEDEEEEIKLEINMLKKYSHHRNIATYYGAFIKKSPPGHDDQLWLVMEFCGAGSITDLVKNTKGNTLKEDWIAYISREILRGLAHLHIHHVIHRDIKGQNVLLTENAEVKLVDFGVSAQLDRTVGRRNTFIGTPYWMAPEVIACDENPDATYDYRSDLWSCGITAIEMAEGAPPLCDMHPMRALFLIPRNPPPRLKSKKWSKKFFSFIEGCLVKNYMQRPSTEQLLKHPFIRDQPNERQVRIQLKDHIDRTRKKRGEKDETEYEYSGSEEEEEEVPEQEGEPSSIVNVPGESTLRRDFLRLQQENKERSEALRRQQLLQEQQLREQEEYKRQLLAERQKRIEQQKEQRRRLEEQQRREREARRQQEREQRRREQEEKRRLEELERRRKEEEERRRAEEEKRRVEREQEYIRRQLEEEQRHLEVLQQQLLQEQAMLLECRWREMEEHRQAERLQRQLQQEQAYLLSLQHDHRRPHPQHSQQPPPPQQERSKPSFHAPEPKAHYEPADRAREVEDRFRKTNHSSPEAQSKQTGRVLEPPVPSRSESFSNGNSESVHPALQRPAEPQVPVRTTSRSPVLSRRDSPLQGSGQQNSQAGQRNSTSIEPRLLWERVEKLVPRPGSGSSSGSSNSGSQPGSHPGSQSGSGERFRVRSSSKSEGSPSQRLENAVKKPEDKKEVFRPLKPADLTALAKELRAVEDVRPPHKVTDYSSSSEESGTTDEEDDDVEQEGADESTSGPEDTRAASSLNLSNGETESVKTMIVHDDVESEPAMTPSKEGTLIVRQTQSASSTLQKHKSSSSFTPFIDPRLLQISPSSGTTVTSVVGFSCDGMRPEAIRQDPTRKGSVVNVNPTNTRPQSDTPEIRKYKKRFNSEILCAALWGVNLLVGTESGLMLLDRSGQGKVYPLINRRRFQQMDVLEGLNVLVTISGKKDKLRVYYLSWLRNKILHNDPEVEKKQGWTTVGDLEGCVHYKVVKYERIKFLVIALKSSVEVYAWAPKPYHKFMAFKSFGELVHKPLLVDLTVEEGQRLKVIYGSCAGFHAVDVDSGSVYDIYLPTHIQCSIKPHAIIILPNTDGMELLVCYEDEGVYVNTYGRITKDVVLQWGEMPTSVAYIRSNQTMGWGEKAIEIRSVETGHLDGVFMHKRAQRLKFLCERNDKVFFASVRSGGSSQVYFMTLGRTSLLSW
BDNF/NT-3 growth factors receptor, sequence (Q16620 whole entry): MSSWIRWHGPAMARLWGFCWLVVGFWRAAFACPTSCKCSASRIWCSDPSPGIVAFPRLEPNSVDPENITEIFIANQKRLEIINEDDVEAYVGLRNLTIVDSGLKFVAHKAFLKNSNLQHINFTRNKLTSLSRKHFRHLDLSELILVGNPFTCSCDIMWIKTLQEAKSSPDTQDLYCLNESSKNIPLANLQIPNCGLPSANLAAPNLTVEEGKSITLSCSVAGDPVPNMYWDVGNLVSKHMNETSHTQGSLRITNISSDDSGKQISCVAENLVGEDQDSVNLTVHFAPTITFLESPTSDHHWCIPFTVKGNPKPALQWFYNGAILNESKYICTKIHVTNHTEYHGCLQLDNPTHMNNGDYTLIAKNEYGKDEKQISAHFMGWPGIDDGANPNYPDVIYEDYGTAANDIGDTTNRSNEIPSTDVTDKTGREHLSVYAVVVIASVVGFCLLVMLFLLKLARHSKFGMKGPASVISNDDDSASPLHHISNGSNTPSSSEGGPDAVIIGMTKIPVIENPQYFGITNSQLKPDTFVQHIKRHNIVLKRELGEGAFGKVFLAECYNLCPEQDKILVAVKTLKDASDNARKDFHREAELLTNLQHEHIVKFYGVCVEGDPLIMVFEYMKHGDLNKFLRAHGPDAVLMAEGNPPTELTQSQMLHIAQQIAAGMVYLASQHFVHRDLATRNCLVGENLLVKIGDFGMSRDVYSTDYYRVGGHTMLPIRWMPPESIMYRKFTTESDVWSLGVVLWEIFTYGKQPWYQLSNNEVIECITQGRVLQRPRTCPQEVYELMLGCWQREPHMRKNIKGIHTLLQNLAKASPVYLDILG
Mitogen-activated protein kinase 8, sequence (P45983 whole entry): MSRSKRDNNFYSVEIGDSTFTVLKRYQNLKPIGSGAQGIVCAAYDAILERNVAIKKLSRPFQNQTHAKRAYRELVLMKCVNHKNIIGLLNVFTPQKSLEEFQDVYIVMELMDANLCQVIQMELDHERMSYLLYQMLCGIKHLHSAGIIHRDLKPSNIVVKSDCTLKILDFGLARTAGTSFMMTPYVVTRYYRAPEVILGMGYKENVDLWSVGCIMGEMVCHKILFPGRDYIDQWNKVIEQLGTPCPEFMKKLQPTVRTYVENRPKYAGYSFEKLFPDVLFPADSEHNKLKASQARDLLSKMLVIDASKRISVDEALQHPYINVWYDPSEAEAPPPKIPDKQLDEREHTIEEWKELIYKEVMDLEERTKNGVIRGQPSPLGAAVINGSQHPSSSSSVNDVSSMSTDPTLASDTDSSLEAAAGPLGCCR
Calcium/calmodulin-dependent protein kinase type II subunit beta, sequence (Q13554 whole entry): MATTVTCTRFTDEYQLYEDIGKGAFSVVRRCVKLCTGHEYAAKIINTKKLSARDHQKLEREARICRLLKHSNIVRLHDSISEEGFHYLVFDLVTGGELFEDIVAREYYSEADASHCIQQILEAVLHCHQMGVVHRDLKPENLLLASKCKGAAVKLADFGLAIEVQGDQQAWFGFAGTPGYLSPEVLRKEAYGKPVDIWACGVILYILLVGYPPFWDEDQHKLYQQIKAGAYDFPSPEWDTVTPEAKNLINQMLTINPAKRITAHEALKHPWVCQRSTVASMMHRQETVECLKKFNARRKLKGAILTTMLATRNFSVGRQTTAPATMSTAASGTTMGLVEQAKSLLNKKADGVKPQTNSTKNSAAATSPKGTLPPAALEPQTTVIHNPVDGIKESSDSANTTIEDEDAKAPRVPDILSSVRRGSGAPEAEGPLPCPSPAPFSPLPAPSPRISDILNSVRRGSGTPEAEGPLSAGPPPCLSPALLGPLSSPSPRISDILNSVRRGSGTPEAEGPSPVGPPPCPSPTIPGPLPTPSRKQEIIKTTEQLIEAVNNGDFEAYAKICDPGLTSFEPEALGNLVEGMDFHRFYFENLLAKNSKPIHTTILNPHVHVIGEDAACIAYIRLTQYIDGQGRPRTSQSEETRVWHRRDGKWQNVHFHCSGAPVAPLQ
Tyrosine-protein kinase BTK, sequence (Q06187 whole entry): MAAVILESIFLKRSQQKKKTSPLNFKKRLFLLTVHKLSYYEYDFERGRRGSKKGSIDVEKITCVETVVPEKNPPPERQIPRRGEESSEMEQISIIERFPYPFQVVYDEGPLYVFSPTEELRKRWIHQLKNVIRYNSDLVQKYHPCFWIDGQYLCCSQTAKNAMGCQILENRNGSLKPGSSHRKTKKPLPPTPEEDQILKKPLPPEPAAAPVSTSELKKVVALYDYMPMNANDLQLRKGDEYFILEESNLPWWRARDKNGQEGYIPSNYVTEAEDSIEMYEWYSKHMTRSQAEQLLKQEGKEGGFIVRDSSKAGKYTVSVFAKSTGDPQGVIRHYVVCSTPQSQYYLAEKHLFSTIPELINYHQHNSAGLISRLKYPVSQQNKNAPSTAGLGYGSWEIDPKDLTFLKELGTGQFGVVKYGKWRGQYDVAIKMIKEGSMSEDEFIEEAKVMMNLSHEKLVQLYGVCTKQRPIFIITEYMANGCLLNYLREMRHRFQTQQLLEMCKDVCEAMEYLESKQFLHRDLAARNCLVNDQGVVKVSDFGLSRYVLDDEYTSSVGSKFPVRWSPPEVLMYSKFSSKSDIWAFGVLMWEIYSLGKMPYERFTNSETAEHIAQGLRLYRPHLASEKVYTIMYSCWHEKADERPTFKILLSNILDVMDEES

For orientation: AC50 means the concentration at which the activity in the assay is half-maximal. Regarding `CCC(C)Nc1ccc(NC(C)CC)cc1` (stereo not given), the CC50 in [1] was 15.9 µM (active); in [3] it was 3.8 µM (active); in [4] it was 11.2 µM (active); in assay [5], 6.68 µM (active). The AC50 in assay [2] was 4.52 µM (active).

One may read the IC50 as the concentration that inhibits the measured activity by half. Consider `CCCCN(CCCC)CCCNC(=O)C12CN(Cc3ccccc3)CC1C(c1cccc([N+](=O)[O-])c1)=NO2` (stereo not given), for which the IC50 is 2.46 µM (active) in assay [6] and 1.19 µM (active) in [7].

Broadly, the Ki is a dissociation constant, usually derived from enzyme kinetics or from competition with a known ligand. As to `Nc1ccc2c(C(=O)O)n(-c3ccccc3)nc2c1`, the Ki in assay [8] was > 3.98 µM (inactive); in [9], > 6.31 µM (inactive); in [10] it was > 3.98 µM (inactive); in assay [11], > 6.31 µM (inactive); in [12], > 5.01 µM (inactive); on Activin receptor type-1 it was > 3.98 µM (inactive). Moreover, the Ki is > 5.01 µM (inactive) in assay [13]; > 6.31 µM (inactive) in assay [14]; 1.26 µM (active) at Aurora kinase A; > 6.31 µM (inactive) in assay [15]; > 5.01 µM (inactive) in assay [16]; > 3.98 µM (inactive) in assay [17]. Moreover, the Ki in assay [18] was 2.51 µM (active); in assay [19], > 5.01 µM (inactive); in assay [20] it was > 3.98 µM (inactive); on LIM domain kinase 1 it was 0.794 µM (active); in assay [21] it was > 6.31 µM (inactive); in assay [22], > 3.98 µM (inactive). Besides, the Ki on Activated CDC42 kinase 1 is > 3.98 µM (inactive); in assay [23], 0.398 µM (active); in [24], > 3.98 µM (inactive); in [25], 2.51 µM (active); on Focal adhesion kinase 1, > 6.31 µM (inactive); at Aurora kinase B, > 3.98 µM (inactive). In addition, the Ki is > 6.31 µM (inactive) in assay [26]; 2 µM (active) in assay [27]; 3.16 µM (active) in [28]; > 3.98 µM (inactive) in [29]; > 3.98 µM (inactive) in assay [30]; > 3.98 µM (inactive) in [31]. Besides, the inhibitory constant (Ki) in [32] is 0.501 µM (active); in [33], > 5.01 µM (inactive); in [34], > 3.98 µM (inactive); in assay [35], > 3.98 µM (inactive); in assay [36], 1 µM (active); in assay [37], > 3.98 µM (inactive). Moreover, in assay [38], the Ki was > 3.98 µM (inactive).

Take `COc1ccc(Oc2c(Cl)cnn(C3c4ccccc4CCc4ccccc43)c2=O)cc1`: in [39], the IC50 was > 20 µM (inactive).

In the case of `CCCC(=O)c1ccc(NCc2c[nH]nc2-c2ccc(C(F)(F)F)cc2)cc1`, the Ki is 3.98 µM (active) in assay [40], 3.98 µM (active) in assay [41], 1.26 µM (active) in assay [42] and 2 µM (active) in assay [43].

As for `O=c1cc(-c2ccncc2)nc(NCc2cc(F)cc(F)c2)[nH]1`, the Ki was 6.31 µM (active) in assay [14]; 0.00631 µM (active) in assay [44]; 0.631 µM (active) in [45]; 0.398 µM (active) in assay [46]; 2 µM (active) in assay [47]; 0.2 µM (active) in assay [48]. Further, the Ki in [49] was 6.31 µM (active); in [32], 0.0126 µM (active); in assay [33], 0.0631 µM (active).

In the case of `N#CC(c1ccc(Cl)cc1)c1c(Cl)cnn(Cc2cccc3ccccc23)c1=O` (stereo not given), the IC50 in assay [50] and in assay [51] was 0.83 µM (active) each time.
